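Protocol summary: plate cells (96-well), add compound at 5 concentrations, incubate 48 h, interpolate endpoints linearly. GI50 marks 50% less growth.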 Activity calls are given as the source filed them. Rule as the data show it: active = GI50 up to about 1.1 µM and inactive = higher.
How the values were obtained:
Experiment in all cases: inhibition of tumour cell growth, NCI panel, 48 h
786-0 = system: 786-0
A549 = system: A549
HL-60 = system: HL-60
HOP-62 = system: HOP-62
HT-29 = system: HT-29
IGROV-1 = system: IGROV-1
KM12 = system: KM12
NCI-H460 = system: NCI-H460
OVCAR-3 = system: OVCAR-3
OVCAR-5 = system: OVCAR-5
OVCAR-8 = system: OVCAR-8
RXF 393 = system: RXF 393
SF-295 = system: SF-295
SK-MEL-28 = system: SK-MEL-28
SK-MEL-2 = system: SK-MEL-2
SN12C = system: SN12C
SNB-19 = system: SNB-19
SR = system: SR
SW-620 = system: SW-620
SF-268 = system: SF-268

Compound	GI50 (786-0)	GI50 (A549)	GI50 (HL-60)	GI50 (HOP-62)	GI50 (HT-29)	GI50 (IGROV-1)	GI50 (KM12)	GI50 (NCI-H460)	GI50 (OVCAR-3)	GI50 (OVCAR-5)	GI50 (OVCAR-8)	GI50 (RXF 393)	GI50 (SF-295)	GI50 (SK-MEL-28)	GI50 (SK-MEL-2)	GI50 (SN12C)	GI50 (SNB-19)	GI50 (SR)	GI50 (SW-620)	GI50 (SF-268)
c1ccc(N2CCN(CCCN3CCc4c([nH]c5ccccc45)C3c3cccnc3)CC2)cc1 (centres undefined)	33.9 µM (inactive)	> 100 µM (inactive)	20 µM (inactive)	> 100 µM (inactive)	22.9 µM (inactive)	> 100 µM (inactive)	51.4 µM (inactive)	48.3 µM (inactive)	> 49.8 µM (inactive)	> 100 µM (inactive)	> 100 µM (inactive)	> 100 µM (inactive)	> 100 µM (inactive)	61.9 µM (inactive)	> 100 µM (inactive)	> 54.6 µM (inactive)	> 100 µM (inactive)	27 µM (inactive)	> 100 µM (inactive)	–
COC(=O)/C(C#N)=C(\N)c1c(C)c2ccccc2oc1=N	> 100 µM (inactive)	> 100 µM (inactive)	> 100 µM (inactive)	> 100 µM (inactive)	–	> 100 µM (inactive)	> 100 µM (inactive)	> 100 µM (inactive)	> 100 µM (inactive)	> 100 µM (inactive)	–	> 100 µM (inactive)	> 100 µM (inactive)	> 100 µM (inactive)	> 100 µM (inactive)	> 100 µM (inactive)	> 100 µM (inactive)	> 100 µM (inactive)	> 100 µM (inactive)	–
CC(C)(C)[Si](C)(C)OC1(CCc2ccccc2OS(=O)(=O)C(F)(F)F)CCCC=C1COCc1ccccc1 (centres undefined)	> 100 µM (inactive)	0.325 µM (active)	2.42 µM (inactive)	> 100 µM (inactive)	–	4.81 µM (inactive)	14 µM (inactive)	–	> 100 µM (inactive)	–	–	48.2 µM (inactive)	6.34 µM (inactive)	> 59.6 µM (inactive)	4.59 µM (inactive)	–	–	1.86 µM (inactive)	58.1 µM (inactive)	–
O=C1OCc2c1cc1cc3c(cc1c2-c1ccc2c(c1)OCO2)OCO3.O=C1OCc2cc3cc4c(cc3c(-c3ccc5c(c3)OCO5)c21)OCO4	–	–	34.8 µM (inactive)	6.31 µM (inactive)	7.23 µM (inactive)	8.55 µM (inactive)	11.1 µM (inactive)	5.79 µM (inactive)	4 µM (inactive)	21 µM (inactive)	13.5 µM (inactive)	5.73 µM (inactive)	2.41 µM (inactive)	45.4 µM (inactive)	11.4 µM (inactive)	15 µM (inactive)	30 µM (inactive)	5.7 µM (inactive)	4.51 µM (inactive)	–
O=C1NCCCC12CCCNC2=O	> 100 µM (inactive)	> 100 µM (inactive)	> 100 µM (inactive)	> 100 µM (inactive)	> 100 µM (inactive)	> 100 µM (inactive)	> 100 µM (inactive)	> 100 µM (inactive)	> 100 µM (inactive)	–	> 100 µM (inactive)	> 100 µM (inactive)	> 100 µM (inactive)	> 100 µM (inactive)	–	> 100 µM (inactive)	> 100 µM (inactive)	> 100 µM (inactive)	> 100 µM (inactive)	> 100 µM (inactive)
CC(C)(C)OC(=O)N1CCC(NC(=O)NC2CCN(C(=O)OC(C)(C)C)CC2)CC1	> 100 µM (inactive)	> 100 µM (inactive)	> 100 µM (inactive)	> 100 µM (inactive)	> 100 µM (inactive)	> 100 µM (inactive)	> 100 µM (inactive)	> 100 µM (inactive)	> 100 µM (inactive)	> 100 µM (inactive)	> 100 µM (inactive)	–	> 100 µM (inactive)	> 100 µM (inactive)	> 100 µM (inactive)	> 100 µM (inactive)	> 100 µM (inactive)	> 100 µM (inactive)	> 100 µM (inactive)	> 100 µM (inactive)
COc1ccc(NC(=O)C(=O)Cc2ccc([N+](=O)[O-])c([N+](=O)[O-])c2CC(=O)C(=O)Nc2ccc(OC)cc2OC)c(OC)c1	> 100 µM (inactive)	> 100 µM (inactive)	> 100 µM (inactive)	> 100 µM (inactive)	> 100 µM (inactive)	> 100 µM (inactive)	> 100 µM (inactive)	> 100 µM (inactive)	> 100 µM (inactive)	> 100 µM (inactive)	> 100 µM (inactive)	> 100 µM (inactive)	> 100 µM (inactive)	> 100 µM (inactive)	–	> 100 µM (inactive)	> 100 µM (inactive)	> 100 µM (inactive)	> 100 µM (inactive)	> 100 µM (inactive)
Cc1ccc(N2C(=O)N(c3ccc(C)cc3)C3(SC=NN3C)C2=O)cc1 (centres undefined)	> 100 µM (inactive)	50.5 µM (inactive)	22.6 µM (inactive)	> 100 µM (inactive)	32.4 µM (inactive)	> 100 µM (inactive)	47.6 µM (inactive)	> 100 µM (inactive)	19.5 µM (inactive)	–	> 100 µM (inactive)	59.6 µM (inactive)	47.8 µM (inactive)	> 100 µM (inactive)	–	> 100 µM (inactive)	> 100 µM (inactive)	58.3 µM (inactive)	> 100 µM (inactive)	> 100 µM (inactive)
CN1C(=O)C2(C)SC1(c1ccccc1)C1C(=O)N(c3ccccc3)C(=O)C12 (centres undefined)	> 100 µM (inactive)	49.8 µM (inactive)	47.1 µM (inactive)	> 100 µM (inactive)	76.2 µM (inactive)	48 µM (inactive)	66.1 µM (inactive)	–	> 100 µM (inactive)	> 100 µM (inactive)	> 100 µM (inactive)	> 100 µM (inactive)	54.6 µM (inactive)	> 100 µM (inactive)	75 µM (inactive)	> 100 µM (inactive)	> 100 µM (inactive)	64.1 µM (inactive)	> 100 µM (inactive)	> 100 µM (inactive)
CC(=O)Nc1cc2c3c(c1)CCCN3CCC2	> 100 µM (inactive)	> 100 µM (inactive)	> 100 µM (inactive)	–	> 100 µM (inactive)	> 100 µM (inactive)	> 100 µM (inactive)	> 100 µM (inactive)	> 100 µM (inactive)	> 100 µM (inactive)	> 100 µM (inactive)	> 100 µM (inactive)	> 100 µM (inactive)	> 100 µM (inactive)	> 100 µM (inactive)	–	> 100 µM (inactive)	> 100 µM (inactive)	> 100 µM (inactive)	–
Cn1c2ccccc2c2c3c(c4c5ccccc5n(C)c4c21)C(=O)c1ccccc1C3=O	14.1 µM (inactive)	59.4 µM (inactive)	21 µM (inactive)	31.1 µM (inactive)	> 100 µM (inactive)	31 µM (inactive)	86.9 µM (inactive)	64.1 µM (inactive)	41.8 µM (inactive)	> 100 µM (inactive)	40.1 µM (inactive)	16.3 µM (inactive)	44.1 µM (inactive)	> 100 µM (inactive)	40.3 µM (inactive)	61.2 µM (inactive)	22.8 µM (inactive)	18.7 µM (inactive)	79.1 µM (inactive)	–
O=C1NC2NC3NC(=O)NC3NC2N1 (centres undefined)	> 100 µM (inactive)	> 100 µM (inactive)	> 100 µM (inactive)	> 100 µM (inactive)	> 100 µM (inactive)	> 100 µM (inactive)	> 100 µM (inactive)	–	> 100 µM (inactive)	> 100 µM (inactive)	> 100 µM (inactive)	> 100 µM (inactive)	> 100 µM (inactive)	> 100 µM (inactive)	> 100 µM (inactive)	> 100 µM (inactive)	> 100 µM (inactive)	> 100 µM (inactive)	> 100 µM (inactive)	–
Cc1ccc(/C=N/n2c(Cc3ccccc3)n[nH]c2=O)cc1	80.9 µM (inactive)	> 100 µM (inactive)	> 100 µM (inactive)	37.2 µM (inactive)	> 100 µM (inactive)	> 100 µM (inactive)	> 100 µM (inactive)	> 100 µM (inactive)	> 100 µM (inactive)	> 100 µM (inactive)	> 100 µM (inactive)	> 100 µM (inactive)	35.9 µM (inactive)	> 100 µM (inactive)	–	> 100 µM (inactive)	> 100 µM (inactive)	> 100 µM (inactive)	> 100 µM (inactive)	> 100 µM (inactive)
O=C1Cc2ccccc2N1c1c(Cl)cccc1Cl	92.5 µM (inactive)	50.2 µM (inactive)	15.3 µM (inactive)	> 100 µM (inactive)	34.3 µM (inactive)	43.4 µM (inactive)	31.8 µM (inactive)	97.5 µM (inactive)	57.1 µM (inactive)	> 100 µM (inactive)	93.3 µM (inactive)	–	38.4 µM (inactive)	54 µM (inactive)	28.5 µM (inactive)	89.1 µM (inactive)	79.1 µM (inactive)	25.4 µM (inactive)	38.6 µM (inactive)	71 µM (inactive)
Cc1ccc(/C=C/C(=O)c2cc(CN(C)C)c(O)c(CN(C)C)c2)cc1	27.2 µM (inactive)	18.8 µM (inactive)	11.7 µM (inactive)	16.5 µM (inactive)	13.7 µM (inactive)	27.4 µM (inactive)	12.1 µM (inactive)	12 µM (inactive)	14.6 µM (inactive)	66.8 µM (inactive)	21.3 µM (inactive)	18.7 µM (inactive)	13.8 µM (inactive)	17.6 µM (inactive)	–	14.2 µM (inactive)	–	18.2 µM (inactive)	16.1 µM (inactive)	25.9 µM (inactive)

— ChEMBL document CHEMBL1201862, “PubChem BioAssay data set” (2004)
